Source: patent publication US20100234363A1, “HETEROCYCLIC DERIVATIVE HAVING INHIBITORY ACTIVITY ON TYPE-I 11 DATA-HYDROXYSTEROID DEHYDROGENASE” (INSTITUTE OF MEDICINAL MOLECULAR DESIGN, INC., priority 2007, published 2010)

Experiments:
Mouse 11β-HSD 1 = Mouse 11β-HSD 1 (Mus musculus, UniProt P50172); test: Evaluation of compound against mouse 11β-HSD1 (HTRF corticosterone assay); format: biochemical; settings: mouse 11β-HSD1, 11-dehydrocorticosterone 2 μM substrate, 37° C. 2 hours
Procedure: Evaluation Method of 11β-HSD1 Inhibitor (Evaluation of Compound Against Mouse 11β-HSD 1)
(§1) After preincubating an inhibitor in a reaction solution consisting of 50 mM sodium phosphate buffer (pH 7.6), bovine serum albumin (1 mg/mL), NADPH (0.42 mg/mL), glucose-6-phosphate (1.26 mg/mL), glucose-6-phosphate dehydrogenase, and an enzyme at room temperature for 30 minutes, 11-dehydrocorticosterone (2 μM) which is a substrate was added (total amount 10 μL). After reacting at 37° C. for 2 hours, an XL-665-labeled cortisol solution (5 μL), and a Cryptate-labeled anti-cortisol antibody solution (5 μL) were added, a reaction was performed at room temperature for 2 hours, and fluorescence intensity (HTRF method) was measured. A corticosterone concentration was calculated from a standard curve prepared using a known concentration of corticosterone for each assay.
Taking a concentration of corticosterone generated in the absence of the inhibitor as a control value, 50% inhibitory concentration (IC50 value) of the inhibitor against 11β-HSD1 was calculated from an inhibition curve plotting inhibition rate against the control value at each concentration of the inhibitor.

Human 11β-HSD1 = Human 11β-HSD1 (Homo sapiens, UniProt P28845); test: Evaluation of compound against human 11β-HSD1 (HTRF cortisol assay); format: biochemical; settings: human 11β-HSD1, cortisone 5 μM substrate, 37° C. 2 hours
Sequence of Human 11β-HSD1 (P28845 whole entry): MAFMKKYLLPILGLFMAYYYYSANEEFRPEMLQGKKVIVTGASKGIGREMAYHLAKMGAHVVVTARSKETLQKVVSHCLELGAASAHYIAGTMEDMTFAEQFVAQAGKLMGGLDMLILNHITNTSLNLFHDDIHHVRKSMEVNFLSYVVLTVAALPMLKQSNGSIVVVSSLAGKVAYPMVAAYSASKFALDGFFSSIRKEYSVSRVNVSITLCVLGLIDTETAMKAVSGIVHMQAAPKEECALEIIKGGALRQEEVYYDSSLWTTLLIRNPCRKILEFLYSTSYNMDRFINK
Procedure: Evaluation Method of 11β-HSD1 Inhibitor (Evaluation of Compound Against Human 11β-HSD1)
as §1, with “dehydrogenase” for “dehydrogenase,”, “cortisone (5” for “11-dehydrocorticosterone (2”, “cortisol” for “corticosterone”
Taking a concentration of cortisol generated in the absence of the inhibitor as a control value, 50% inhibitory concentration (IC50 value) of the inhibitor against 11β-HSD1 was calculated from an inhibition curve plotting inhibition rate against the control value at each concentration of an inhibitor.

Sequence of Mouse 11β-HSD 1 (P50172 whole entry): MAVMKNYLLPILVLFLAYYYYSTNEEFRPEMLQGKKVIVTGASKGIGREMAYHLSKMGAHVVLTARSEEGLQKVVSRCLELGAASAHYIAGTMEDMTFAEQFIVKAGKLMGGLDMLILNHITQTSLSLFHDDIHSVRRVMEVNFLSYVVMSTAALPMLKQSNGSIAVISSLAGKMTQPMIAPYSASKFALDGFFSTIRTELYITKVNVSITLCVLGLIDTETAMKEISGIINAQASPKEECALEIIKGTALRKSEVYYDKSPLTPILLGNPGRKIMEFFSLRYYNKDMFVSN

Structure (SMILES) | IC50 (Mouse 11β-HSD 1) [nM] | IC50 (Human 11β-HSD1) [nM]
CCN(C1=NC(=O)C2CC(C)(C)CCC2S1)N1CCCCCC1 (stereo not drawn) [Compound I-195] | 1640 | 11
CCN(C1=NC(=O)C2CC(C)(C)CCC2S1)c1ccccc1C(C)(C)C (stereo not drawn) [Compound I-175] | 820 | 32
CN(C1=NC(=O)C2CCCCCC2S1)C(C)(C)C (stereo not drawn) [Compound I-158] | 1490 | 190
